Measured values reported in ChEMBL document CHEMBL4706543, “Discovery of the first potent and selective αβ integrin inhibitor based on an amide-containing core” (Eur J Med Chem, 2020).
Converted amounts (≈) assume the structure as drawn.

Experiments:
Homo sapiens = species on record: Homo sapiens; assay: Selectivity ratio of IC50 for inhibition of integrin alphavbeta3 (unknown origin) to IC50 for inhibition of integrin alphavbeta5 (unknown origin)
Integrin alpha-V/beta-3 [1] = target: T1, Integrin alpha-V/beta-3 (Homo sapiens, UniProt P05106+P06756); assay: Inhibition of human alphavbeta3 integrin stably expressed in human K562 cells assessed as inhibition of cell adhesion to GST-LAP1 incubated for 30 mins by BCECF-AM staining based fluorescence assay
T1 sequence (P05106 27-788 limits assumed): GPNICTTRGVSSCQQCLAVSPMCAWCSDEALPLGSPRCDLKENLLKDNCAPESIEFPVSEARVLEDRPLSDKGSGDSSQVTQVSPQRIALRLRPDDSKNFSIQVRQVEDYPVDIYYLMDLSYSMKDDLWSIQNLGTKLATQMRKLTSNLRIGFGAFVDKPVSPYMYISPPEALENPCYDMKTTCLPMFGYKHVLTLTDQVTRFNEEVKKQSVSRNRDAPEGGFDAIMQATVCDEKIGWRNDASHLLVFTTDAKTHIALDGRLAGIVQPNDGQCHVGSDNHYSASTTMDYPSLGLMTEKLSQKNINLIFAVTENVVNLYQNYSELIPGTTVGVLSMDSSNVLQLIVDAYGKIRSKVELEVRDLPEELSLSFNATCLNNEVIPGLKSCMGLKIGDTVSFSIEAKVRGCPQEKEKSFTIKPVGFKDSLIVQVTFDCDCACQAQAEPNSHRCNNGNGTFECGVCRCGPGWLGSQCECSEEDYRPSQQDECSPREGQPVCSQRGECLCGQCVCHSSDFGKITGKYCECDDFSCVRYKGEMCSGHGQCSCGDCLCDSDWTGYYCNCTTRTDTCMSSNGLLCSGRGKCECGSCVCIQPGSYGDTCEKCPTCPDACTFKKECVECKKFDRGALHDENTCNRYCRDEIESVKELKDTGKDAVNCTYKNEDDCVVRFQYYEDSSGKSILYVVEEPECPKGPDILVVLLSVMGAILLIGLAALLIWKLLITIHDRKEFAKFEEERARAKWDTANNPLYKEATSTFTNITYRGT
T1 sequence (P06756 31-889 limits assumed): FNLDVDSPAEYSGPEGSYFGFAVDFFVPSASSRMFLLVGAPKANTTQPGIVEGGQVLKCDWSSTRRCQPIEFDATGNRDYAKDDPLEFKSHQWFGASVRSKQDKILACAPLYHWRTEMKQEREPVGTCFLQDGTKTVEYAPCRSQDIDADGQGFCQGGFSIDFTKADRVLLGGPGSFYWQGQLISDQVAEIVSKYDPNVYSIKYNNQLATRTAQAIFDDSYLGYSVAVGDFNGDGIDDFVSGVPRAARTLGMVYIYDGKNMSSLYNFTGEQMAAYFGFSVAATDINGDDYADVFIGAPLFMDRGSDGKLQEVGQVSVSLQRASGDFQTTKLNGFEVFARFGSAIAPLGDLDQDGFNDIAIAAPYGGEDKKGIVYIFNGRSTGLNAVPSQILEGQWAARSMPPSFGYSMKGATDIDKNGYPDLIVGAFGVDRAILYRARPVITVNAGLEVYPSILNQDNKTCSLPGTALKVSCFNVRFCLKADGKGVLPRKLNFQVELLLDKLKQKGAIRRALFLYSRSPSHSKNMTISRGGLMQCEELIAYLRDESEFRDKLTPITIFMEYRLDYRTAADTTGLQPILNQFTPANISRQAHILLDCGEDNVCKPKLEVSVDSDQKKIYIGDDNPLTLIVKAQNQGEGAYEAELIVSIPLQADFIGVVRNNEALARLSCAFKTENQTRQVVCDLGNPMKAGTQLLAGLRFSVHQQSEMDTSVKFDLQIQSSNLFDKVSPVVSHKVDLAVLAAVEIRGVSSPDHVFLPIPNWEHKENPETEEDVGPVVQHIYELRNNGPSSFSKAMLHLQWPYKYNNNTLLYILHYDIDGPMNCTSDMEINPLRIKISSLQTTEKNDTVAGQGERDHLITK
T1 sequence (P06756 891-1048 limits assumed): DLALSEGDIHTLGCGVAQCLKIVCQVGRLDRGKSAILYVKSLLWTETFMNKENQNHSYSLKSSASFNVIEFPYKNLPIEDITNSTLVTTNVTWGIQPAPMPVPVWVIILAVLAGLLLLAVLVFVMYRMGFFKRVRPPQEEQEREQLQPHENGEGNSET

Integrin alpha-V/beta-3 [2] = target: T1, Integrin alpha-V/beta-3; assay: Inhibition of integrin alphavbeta3 (unknown origin) by fluorescence polarization assay
Integrin alpha-V/beta-5 [3] = target: T2, Integrin alpha-V/beta-5 (Homo sapiens, UniProt P06756+P18084); assay: Inhibition of human alphavbeta5 integrin stably expressed in human K562 cells assessed as inhibition of cell adhesion to vitronectin incubated for 30 mins by BCECF-AM staining based fluorescence assay
T2 sequence (P06756 31-889 limits assumed): as the sequence (P06756 31-889 limits assumed) above
T2 sequence (P06756 891-1048 limits assumed): as the sequence (P06756 891-1048 limits assumed) above
T2 sequence (P18084 24-799 limits assumed): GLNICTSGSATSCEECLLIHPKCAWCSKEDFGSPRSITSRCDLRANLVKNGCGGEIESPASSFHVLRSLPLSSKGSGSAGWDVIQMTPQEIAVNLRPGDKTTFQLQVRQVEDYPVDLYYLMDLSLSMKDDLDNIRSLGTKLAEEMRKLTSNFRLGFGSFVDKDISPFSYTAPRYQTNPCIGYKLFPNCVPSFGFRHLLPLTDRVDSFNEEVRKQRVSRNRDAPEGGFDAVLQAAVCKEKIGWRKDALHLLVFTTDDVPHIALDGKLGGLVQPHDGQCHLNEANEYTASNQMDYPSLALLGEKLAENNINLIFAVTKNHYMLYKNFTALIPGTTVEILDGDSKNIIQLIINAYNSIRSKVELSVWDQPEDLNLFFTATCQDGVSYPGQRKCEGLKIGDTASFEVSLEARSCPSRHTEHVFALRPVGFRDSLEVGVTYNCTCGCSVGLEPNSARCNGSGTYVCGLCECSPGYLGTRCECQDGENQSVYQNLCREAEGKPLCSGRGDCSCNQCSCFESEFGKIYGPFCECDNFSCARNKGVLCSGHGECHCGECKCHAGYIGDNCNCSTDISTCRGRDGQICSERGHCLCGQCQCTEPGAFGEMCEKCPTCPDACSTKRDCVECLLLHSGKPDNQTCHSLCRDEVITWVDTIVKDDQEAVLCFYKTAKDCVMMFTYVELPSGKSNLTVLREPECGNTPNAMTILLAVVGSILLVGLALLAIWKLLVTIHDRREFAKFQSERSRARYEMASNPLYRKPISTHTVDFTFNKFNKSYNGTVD

Integrin alpha-V/beta-5 [4] = target: T2, Integrin alpha-V/beta-5; assay: Inhibition of integrin alphavbeta5 (unknown origin) by fluorescence polarization assay
Integrin alpha-V/beta-6 = Integrin alpha-V/beta-6 (Homo sapiens, UniProt P06756+P18564); assay: Inhibition of integrin alphavbeta6 (unknown origin) by fluorescence polarization assay; type: protein-complex assay
Sequence of Integrin alpha-V/beta-6 (P06756 31-889 limits assumed): as the sequence (P06756 31-889 limits assumed) above
Sequence of Integrin alpha-V/beta-6 (P06756 891-1048 limits assumed): as the sequence (P06756 891-1048 limits assumed) above
Sequence of Integrin alpha-V/beta-6 (P18564 22-788 limits assumed): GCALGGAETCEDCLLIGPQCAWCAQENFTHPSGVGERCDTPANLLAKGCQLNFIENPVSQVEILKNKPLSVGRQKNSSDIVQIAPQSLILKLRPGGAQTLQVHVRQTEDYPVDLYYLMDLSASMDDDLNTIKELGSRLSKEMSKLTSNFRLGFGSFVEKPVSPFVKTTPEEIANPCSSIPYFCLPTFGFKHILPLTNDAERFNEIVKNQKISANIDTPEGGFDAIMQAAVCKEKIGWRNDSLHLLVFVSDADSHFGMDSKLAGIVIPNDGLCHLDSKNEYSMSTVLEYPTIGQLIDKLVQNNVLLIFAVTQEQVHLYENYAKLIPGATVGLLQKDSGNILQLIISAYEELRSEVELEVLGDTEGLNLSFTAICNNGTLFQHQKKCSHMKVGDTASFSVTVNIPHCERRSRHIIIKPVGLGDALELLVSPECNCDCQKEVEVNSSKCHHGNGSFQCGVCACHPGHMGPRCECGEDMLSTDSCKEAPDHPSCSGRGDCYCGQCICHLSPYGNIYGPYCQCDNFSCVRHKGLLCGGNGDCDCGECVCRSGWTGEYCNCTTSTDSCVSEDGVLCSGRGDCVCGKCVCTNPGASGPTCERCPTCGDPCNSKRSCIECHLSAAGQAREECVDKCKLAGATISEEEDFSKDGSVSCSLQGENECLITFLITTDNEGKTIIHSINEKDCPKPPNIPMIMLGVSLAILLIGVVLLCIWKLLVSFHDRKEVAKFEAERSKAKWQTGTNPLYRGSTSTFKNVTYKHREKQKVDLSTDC

Integrin alpha-V/beta-8 = Integrin alpha-V/beta-8 (Homo sapiens, UniProt P06756+P26012); assay: Inhibition of integrin alphavbeta8 (unknown origin) by fluorescence polarization assay; type: protein-complex assay
Sequence of Integrin alpha-V/beta-8 (P06756 31-889 limits assumed): as the sequence (P06756 31-889 limits assumed) above
Sequence of Integrin alpha-V/beta-8 (P06756 891-1048 limits assumed): as the sequence (P06756 891-1048 limits assumed) above
Sequence of Integrin alpha-V/beta-8 (P26012 43-769 limits assumed): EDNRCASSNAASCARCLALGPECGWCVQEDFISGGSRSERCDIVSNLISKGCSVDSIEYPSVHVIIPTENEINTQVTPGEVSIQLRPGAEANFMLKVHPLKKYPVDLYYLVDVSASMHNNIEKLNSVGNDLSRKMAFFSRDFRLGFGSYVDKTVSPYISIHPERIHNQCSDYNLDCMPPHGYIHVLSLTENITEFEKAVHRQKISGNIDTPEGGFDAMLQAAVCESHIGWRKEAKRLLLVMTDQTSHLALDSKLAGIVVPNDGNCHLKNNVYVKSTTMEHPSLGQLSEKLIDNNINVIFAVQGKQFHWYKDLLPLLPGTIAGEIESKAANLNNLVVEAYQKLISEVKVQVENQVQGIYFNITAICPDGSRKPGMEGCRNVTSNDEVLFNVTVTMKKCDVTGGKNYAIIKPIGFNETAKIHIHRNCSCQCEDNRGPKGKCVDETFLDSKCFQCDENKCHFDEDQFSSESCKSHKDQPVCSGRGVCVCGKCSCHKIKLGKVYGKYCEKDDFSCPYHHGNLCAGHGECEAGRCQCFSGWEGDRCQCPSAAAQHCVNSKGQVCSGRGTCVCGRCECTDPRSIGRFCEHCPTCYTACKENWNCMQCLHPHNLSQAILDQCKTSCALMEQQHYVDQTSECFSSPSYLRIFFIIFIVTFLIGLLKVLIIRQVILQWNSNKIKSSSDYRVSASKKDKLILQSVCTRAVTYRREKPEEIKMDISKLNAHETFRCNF

Integrin alpha-V/beta-1 = Integrin alpha-V/beta-1 (Homo sapiens, UniProt P05556+P06756); assay: Inhibition of integrin alphavbeta1 (unknown origin) by fluorescence polarization assay; type: protein-complex assay
[5] = Clearance in human hepatocytes assessed per gram tissue; type: ADME, cell-based, Hepatocyte
[6] = Clearance in rat microsomes assessed per gram tissue; type: ADME, Microsome
[7] = Clearance in human microsomes assessed per gram tissue; type: ADME, Microsome
[8] = Clearance in human hepatocytes based well stirred model; type: ADME, cell-based, Hepatocyte
[9] = Solubility of the compound by CAD method; type: physicochemical
[10] = Lipophilicity, log D of compound by chromatographic method; type: physicochemical
[11] = Clearance in rat hepatocytes assessed per gram tissue; type: ADME, cell-based, Hepatocyte
[12] = Clearance in human microsomes based well stirred model; type: ADME, Microsome
[13] = Passive permeability of compound in MDCK cells; type: ADME, cell-based, Canis lupus familiaris; details: dog, read-out: permeability
[14] = Clearance in rat microsomes based well stirred model; type: ADME, Microsome
[15] = Clearance in rat hepatocytes based well stirred model; type: ADME, cell-based, Hepatocyte

Row | SMILES | Ratio IC50 (Homo sapiens) | IC50 (Integrin alpha-V/beta-3 [2]) | IC50 (Integrin alpha-V/beta-5 [4]) | further results
1 | O=C(O)C[C@H](C(=O)N1CCCC(CCc2ccc3c(n2)NCCC3)C1)c1ccccc1 (some centres not stated) | 13 | 6310 nM | 501 nM | –
2 | O=C(O)C[C@H](C(=O)N1CC[C@@H](CCc2ccc3c(n2)NCCC3)C1)c1ccc(Br)cc1 | 200 | 1260 nM | 6.31 nM | –
3 | O=C(O)C[C@H](C(=O)N1CC[C@@H](CCc2ccc3c(n2)NCCC3)C1)c1ccccc1 | 250 | 1000 nM | 3.98 nM | IC50 (Integrin alpha-V/beta-6): > 79400 nM; IC50 (Integrin alpha-V/beta-8): > 79400 nM; IC50 (Integrin alpha-V/beta-1): 3980 nM
4 | O=C(O)C[C@H](C(=O)N1CC[C@@H](CCc2ccc3c(n2)NCCC3)C1)c1cccc(N2CCNCC2)c1 | 100 | 1580 nM | 15.8 nM | –
5 | CN1CCN(c2cccc([C@H](CC(=O)O)C(=O)N3CC[C@@H](CCc4ccc5c(n4)NCCC5)C3)c2)CC1 | 125 | 1260 nM | 10 nM | –
6 | O=C(O)C[C@H](C(=O)N1CC[C@@H](CCc2ccc3c(n2)NCCC3)C1)c1cccc(C2=CCCC2)c1 | 160 | 1260 nM | 7.94 nM | –
7 | O=C(O)C[C@H](C(=O)N1CC[C@@H](CCc2ccc3c(n2)NCCC3)C1)c1cccs1 | 160 | 794 nM | 5.01 nM | –
8 | Cc1ccc([C@H](CC(=O)O)C(=O)N2CC[C@@H](CCc3ccc4c(n3)NCCC4)C2)s1 | 25 | 158 nM | 6.31 nM | –
9 | O=C(O)C[C@H](C(=O)N1CC[C@@H](CCc2ccc3c(n2)NCCC3)C1)c1ccc(Br)s1 | 20 | 200 nM | 10 nM | –
10 | Cc1cc(C)cc([C@H](CC(=O)O)C(=O)N2CC[C@@H](CCc3ccc4c(n3)NCCC4)C2)c1 | 400 | 3980 nM | 10 nM | IC50 (Integrin alpha-V/beta-3 [1]): > 10000 nM; IC50 (Integrin alpha-V/beta-5 [3]): 501 nM
11 | O=C(O)C[C@H](C(=O)N1CC[C@@H](CCc2ccc3c(n2)NCCC3)C1)c1ccsc1 | 125 | 501 nM | 3.98 nM | –
12 | Cc1csc([C@H](CC(=O)O)C(=O)N2CC[C@@H](CCc3ccc4c(n3)NCCC4)C2)c1 | 200 | 631 nM | 3.16 nM | –
13 | O=C(O)C[C@H](C(=O)N1CC[C@@H](CCc2ccc3c(n2)NCCC3)C1)c1cccc(C(F)(F)F)c1 | 800 | 5010 nM | – | CLH [5]: < 0.45 mL/min/g; clearance [6]: < 0.46 mL/min/g; clearance [7]: < 0.4 mL/min/g; CLH [8]: < 7 mL/min/kg; solubility [9]: 141 µg/mL (≈ 297 µM); chromatographic logD [10]: 5.05; CLH [11]: 14.3 mL/min/g; IC50 (Integrin alpha-V/beta-3 [1]): > 10000 nM; clearance [12]: < 6 mL/min/kg; Papp [13]: 29.5 ×10⁻⁶ cm/s; clearance [14]: < 14 mL/min/kg; IC50 (Integrin alpha-V/beta-5 [3]): 794 nM; CLH [15]: 68 mL/min/kg
14 | O=C(O)C[C@H](C(=O)N1CC[C@@H](CCc2ccc3c(n2)NCCC3)C1)c1cccc(C2CCCC2)c1 | 200 | 2510 nM | – | –
15 | O=C(O)C[C@H](C(=O)N1CC[C@@H](CCc2ccc3c(n2)NCCC3)C1)c1cccc(N2CCOCC2)c1 | 160 | 2000 nM | 12.6 nM | –
16 | O=C(O)C[C@H](C(=O)N1CC[C@@H](CCc2ccc3c(n2)NCCC3)C1)c1cc(Br)cc(Br)c1 | 320 | 1580 nM | 5.01 nM | –
17 | O=C(O)C[C@H](C(=O)N1CC[C@@H](CCc2ccc3c(n2)NCCC3)C1)c1ccccc1Br | 10 | 12600 nM | 1260 nM | –
18 | O=C(O)C[C@H](C(=O)N1CC[C@@H](CCc2ccc3c(n2)NCCC3)C1)c1cc(Br)cs1 | 100 | 316 nM | 3.16 nM | –

The next lines start with results.

Row | Ratio IC50 (Homo sapiens) | IC50 (Integrin alpha-V/beta-3 [2]) | IC50 (Integrin alpha-V/beta-5 [4]) | SMILES | further results
19 | 800 | 6310 nM | 7.94 nM | O=C(O)C[C@H](C(=O)N1CC[C@@H](CCc2ccc3c(n2)NCCC3)C1)c1cccc(C2CC2)c1 | IC50 (Integrin alpha-V/beta-3 [1]): > 10000 nM; IC50 (Integrin alpha-V/beta-5 [3]): 316 nM
20 | 200 | 794 nM | 3.98 nM | O=C(O)C[C@H](C(=O)N1CC[C@@H](CCc2ccc3c(n2)NCCC3)C1)c1cccc(Br)c1 | –
21 | 6 | 251 nM | 39.8 nM | O=C(O)CCn1ccc2cc(OCCCNc3ccccn3)ccc21 | –
22 | 500 | 2510 nM | 5.01 nM | C=C(C)c1cccc([C@H](CC(=O)O)C(=O)N2CC[C@@H](CCc3ccc4c(n3)NCCC4)C2)c1 | IC50 (Integrin alpha-V/beta-3 [1]): > 10000 nM; IC50 (Integrin alpha-V/beta-5 [3]): 316 nM
23 | 125 | 3160 nM | 25.1 nM | O=C(O)C[C@H](C(=O)N1CC(CCc2ccc3c(n2)NCCC3)C1)c1ccccc1 | –
24 | 4 | 39.8 nM | 10 nM | CNc1cccc(CCOc2ccc3c(ccn3CCC(=O)O)c2)n1 | –
25 | 40 | 158 nM | 3.98 nM | O=C(O)C[C@H](C(=O)N1CC[C@@H](CCc2ccc3c(n2)NCCC3)C1)c1cccc(O)c1 | –
26 | 160 | 501 nM | 3.16 nM | N#Cc1cccc([C@H](CC(=O)O)C(=O)N2CC[C@@H](CCc3ccc4c(n3)NCCC4)C2)c1 | CLH [5]: < 0.45 mL/min/g; clearance [6]: < 0.46 mL/min/g; clearance [7]: < 0.4 mL/min/g; CLH [8]: < 7 mL/min/kg; solubility [9]: 192 µg/mL (≈ 444 µM); chromatographic logD [10]: 3.69; CLH [11]: 1.4 mL/min/g; clearance [12]: < 6 mL/min/kg; Papp [13]: 5.7 ×10⁻⁶ cm/s; clearance [14]: < 14 mL/min/kg; CLH [15]: 30 mL/min/kg
27 | 320 | 2000 nM | 6.31 nM | O=C(O)C[C@H](C(=O)N1CC[C@@H](CCc2ccc3c(n2)NCCC3)C1)c1cccc(-c2ccccc2)c1 | –
28 | 400 | 1580 nM | 3.98 nM | Cc1cccc([C@H](CC(=O)O)C(=O)N2CC[C@@H](CCc3ccc4c(n3)NCCC4)C2)c1 | CLH [5]: < 0.45 mL/min/g; clearance [6]: < 0.46 mL/min/g; clearance [7]: < 0.4 mL/min/g; CLH [8]: < 7 mL/min/kg; solubility [9]: 142 µg/mL (≈ 337 µM); chromatographic logD [10]: 4.16; CLH [11]: 3.2 mL/min/g; IC50 (Integrin alpha-V/beta-3 [1]): 6310 nM; clearance [12]: < 6 mL/min/kg; Papp [13]: 17.6 ×10⁻⁶ cm/s; clearance [14]: < 14 mL/min/kg; IC50 (Integrin alpha-V/beta-5 [3]): 79.4 nM; CLH [15]: 46 mL/min/kg
29 | 5 | 10000 nM | 2000 nM | O=C(O)C[C@@H](C(=O)N1CC[C@@H](CCc2ccc3c(n2)NCCC3)C1)c1cccc(Br)c1 | –
30 | 25 | 5010 nM | 200 nM | CN(CCCCc1ccc2c(n1)NCCC2)C(=O)[C@@H](CC(=O)O)c1ccccc1 | –
31 | 400 | 1000 nM | 2.51 nM | O=C(O)C[C@H](C(=O)N1CC[C@@H](CCc2ccc3c(n2)NCCC3)C1)c1cccc(Cl)c1 | IC50 (Integrin alpha-V/beta-3 [1]): 6310 nM; IC50 (Integrin alpha-V/beta-5 [3]): 126 nM
32 | 100 | 794 nM | 7.94 nM | O=C(O)C[C@H](C(=O)N1CC(CCCc2ccc3c(n2)NCCC3)C1)c1ccccc1 | –
